Literature values, collected in patent US20070254835A1, “COMPOSITION AND METHOD FOR TREATING NEUROLOGICAL DISORDERS” (priority 2003, published 2007).

Columns and labels:
MT-3 = settings: brain tissue
HDAC = settings: in words only; literature
mammalian HDAC = settings: Yoshida et al. 1990
[1] = sterile powder formulation stored at 2-8° C.
DNA methyltransferase = settings: after incorporation at a site of methylation

Nc1ncn([C@@H]2O[C@H](CO)[C@@H](O)[C@H]2O)c(=O)n1 [5-azacytidine]
MT-3 expression after treatment (MT-3): re-expression of MT-3

O=C(/C=C/c1cccc(C(=O)NO)c1)NO [CBHA, m-carboxy-cinnamic acid bishydroxamic acid]
concentration at which HDAC is inhibited (HDAC): micromolar concentration or lower

C/C=C1\NC(=O)[C@H]2CSSCC/C=C/[C@H](CC(=O)N[C@H](C(C)C)C(=O)N2)OC(=O)[C@H](C(C)C)NC1=O [Depsipeptide, depsipeptide]
concentration at which HDAC is inhibited (HDAC): micromolar concentrations

CC(/C=C/C(=O)NO)=C\[C@@H](C)C(=O)c1ccc(N(C)C)cc1 [TSA, trichostatin A]
inhibition of mammalian HDAC (mammalian HDAC): potent inhibitor

Nc1ncn([C@H]2C[C@H](O)[C@@H](CO)O2)c(=O)n1 [decitabine, 5-aza-2′-deoxycytidine]
half life in vivo: short half life | tissue distribution (in vivo): excellent tissue distribution | time the drug is kept stable [1]: at least 2 years | effect on DNA methyltransferase (DNA methyltransferase): irreversible inactivation

depudecin
concentration at which HDAC is inhibited (HDAC): micromolar concentrations
